Assay results: ChEMBL document CHEMBL1144527 (Bioorg Med Chem, 2007)

Experiments:
[1] = molecular target: T1, Prostaglandin G/H synthase 1 (Ovis aries, UniProt P05979); assay: Inhibition of ovine COX1 by enzyme immunoassay
T1 sequence (P05979 whole entry): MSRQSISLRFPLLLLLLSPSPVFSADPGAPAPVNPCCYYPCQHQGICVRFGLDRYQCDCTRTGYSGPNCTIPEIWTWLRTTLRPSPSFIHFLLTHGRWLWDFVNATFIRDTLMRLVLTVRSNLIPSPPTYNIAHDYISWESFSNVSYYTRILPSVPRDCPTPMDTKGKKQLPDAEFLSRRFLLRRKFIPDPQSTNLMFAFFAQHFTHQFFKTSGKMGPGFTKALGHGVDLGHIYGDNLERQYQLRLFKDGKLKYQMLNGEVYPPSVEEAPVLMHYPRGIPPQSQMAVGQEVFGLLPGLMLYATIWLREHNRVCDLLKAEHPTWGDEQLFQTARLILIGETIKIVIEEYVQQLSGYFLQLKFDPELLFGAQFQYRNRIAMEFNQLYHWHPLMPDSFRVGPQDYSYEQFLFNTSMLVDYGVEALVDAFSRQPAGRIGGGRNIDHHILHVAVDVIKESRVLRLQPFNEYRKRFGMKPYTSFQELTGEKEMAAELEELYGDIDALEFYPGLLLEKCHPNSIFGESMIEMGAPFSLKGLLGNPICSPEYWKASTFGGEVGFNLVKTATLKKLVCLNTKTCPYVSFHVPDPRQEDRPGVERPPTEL

[2] = molecular target: T2, Prostaglandin G/H synthase 2 (Ovis aries, UniProt P79208); assay: Inhibition of ovine COX2 by enzyme immunoassay
T2 sequence (P79208 whole entry): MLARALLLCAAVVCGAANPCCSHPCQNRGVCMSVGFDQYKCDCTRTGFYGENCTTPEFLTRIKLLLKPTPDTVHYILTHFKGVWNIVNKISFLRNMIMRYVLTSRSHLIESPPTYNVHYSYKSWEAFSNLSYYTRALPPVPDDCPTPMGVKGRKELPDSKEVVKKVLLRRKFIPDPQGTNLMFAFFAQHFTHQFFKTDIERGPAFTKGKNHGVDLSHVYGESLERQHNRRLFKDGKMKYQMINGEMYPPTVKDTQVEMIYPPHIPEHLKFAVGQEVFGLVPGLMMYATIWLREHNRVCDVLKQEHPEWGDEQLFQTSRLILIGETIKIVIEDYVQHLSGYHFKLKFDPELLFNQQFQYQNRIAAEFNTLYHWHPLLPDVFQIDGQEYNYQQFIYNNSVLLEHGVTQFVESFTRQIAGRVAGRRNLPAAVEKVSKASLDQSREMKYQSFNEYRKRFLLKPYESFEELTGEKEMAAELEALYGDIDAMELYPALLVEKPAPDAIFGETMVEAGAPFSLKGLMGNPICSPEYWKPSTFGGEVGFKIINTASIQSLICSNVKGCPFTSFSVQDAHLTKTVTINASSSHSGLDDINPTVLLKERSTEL

[3] = species: Ovis aries; assay: Selectivity index, ratio of IC50 for ovine COX1 to IC50 for ovine COX2

Row | IC50 [1] [µM] | IC50 [2] [nM] | COX1/COX2 IC50 selectivity index [3] | Compound
1 | 31.6 | 1700 | 18.5 | CS(=O)(=O)Nc1ccc(C2=C(c3ccccc3)C(=O)OC2)cc1
2 | > 100 | 31500 | > 31 | COc1ccc(C2=C(c3ccc(NS(C)(=O)=O)cc3)COC2=O)cc1
3 | 10 | 3200 | 3.1 | CS(=O)(=O)Nc1ccc(C2=C(c3ccc(F)cc3)C(=O)OC2)cc1
4 | 31.5 | 800 | 39.4 | CS(=O)(=O)Nc1ccc(C2=C(c3ccc(Cl)cc3)C(=O)OC2)cc1
5 | > 100 | 900 | > 111 | Cc1ccc(C2=C(c3ccc(NS(C)(=O)=O)cc3)COC2=O)cc1
6 | 35.5 | 3200 | 11.1 | CS(=O)(=O)Nc1ccc(C2=C(c3ccc(Br)cc3)C(=O)OC2)cc1
